According to patent US12637414B2, “Arylamides and methods of use thereof” (Genzyme Corporation, priority 2019, dated 2026):

Molecular target: T1, human Cystic Fibrosis Transmembrane Conductance Regulator (CFTR) harboring the ΔF508 mutation (Homo sapiens, UniProt P13569, DEL508-508)
T1 construct: expressed in transfected cells; host or cells: H441 carcinoma line (G418 selection)
Test: H441 cell Emax and EC50: HRP-tagged ΔF508-CFTR cell surface luminescence assay
Type: cell-based
Settings: H441 cells expressing ΔF508-CFTR-HRP, 27° C., two nights; for EC50: 15-point dose-response, top 24.5 μM; for Emax: NCI-H441, % of maximum VX809 signal
Source text: Two cell lines were used, the H441 carcinoma line and the CFHBE41o-(41o-) human bronchial epithelial line. Both cell lines expressed human Cystic Fibrosis Transmembrane Conductance Regulator (CFTR) harboring the ΔF508 mutation and with an in-frame fusion in CFTR extracellular loop 4 of Horse Radish Peroxidase (HRP) under control of the CMV promoter. In the presence of the HRP tag, ΔF508-CFTR transported to the cell surface was detectable upon addition of an HRP substrate (Luminata Forte). Both cell types were cultivated at 37° C. with CO2.
For both cell types, the medium was changed every other day unless the culture was at low % confluence. Cells were used for the assays at ˜75% confluence.
To a polypropylene (PP) 384-well plate, 15 μls DMSO was added to all wells in columns 1-22 and 24 (low Control). 15 μls of 260 μM VX809 (Lumacaftor), Selleckchem S1565, was added to column 23 wells (high Control). 15 μls of 10 mM test compound or VX809 (control) were added to wells of row A. Serial dilutions of Row A compound were performed 2×15 μls in rows A through O (15-point).
A PP, 384-well plate containing the appropriate cell culture medium was prepared for each assay plate with 100 μls per well. For the doxycycline-induced 41o-cells, doxycycline for both the assay plate and the medium dilution plate was added at 0.0005 mg/ml to the medium.
Both cell lines were plated for the assay at 30 uls per 384-well at 3.4×10^e5 cells per ml (˜10K cells/well). H441 cells were plated on opaque, white, Corning plate 3704. 41o-cells were plated on collagen-coated opaque, white, Corning plate 356665. For 41o-cells, doxycycline was added to the medium.
Using FX (Beckman) protocol, 10 uls diluted compound or medium was added per well to the Assay Plate as: 2 μls DMSO Dilution plate well is diluted in 100 uls of the Medium Dilution Plate well, mixed, and 10 uls is transferred to the Assay Plate.
The final assay dilution series is 24.5, 12.3, 6.1, 3.1, 1.5, 0.8, 0.4, 0.2, 0.1, 0.05, 0.02, 0.01, 0.006, 0.003, 0.001 and 0 μM. The 41o-assay plates were incubated at 37° C. w/CO2, the H441 assay plates were incubated at 27° C. w/CO2, each overnight for two nights.
After being brought to room temperature, the assay plate liquid was removed. 30 μls of Luminata Forte (Millipore ELLUF0100) was added per well and incubated at room temperature for 10 min. The plates were then read on a Topcount, protocol LumiMatti (CPS, luminescence). The data was analyzed for % of maximum, maximum VX809 signal, and EC50 using Pearl and SPEED tools.

T1 sequence (P13569 with tags, fused parts or gaps DEL508-508): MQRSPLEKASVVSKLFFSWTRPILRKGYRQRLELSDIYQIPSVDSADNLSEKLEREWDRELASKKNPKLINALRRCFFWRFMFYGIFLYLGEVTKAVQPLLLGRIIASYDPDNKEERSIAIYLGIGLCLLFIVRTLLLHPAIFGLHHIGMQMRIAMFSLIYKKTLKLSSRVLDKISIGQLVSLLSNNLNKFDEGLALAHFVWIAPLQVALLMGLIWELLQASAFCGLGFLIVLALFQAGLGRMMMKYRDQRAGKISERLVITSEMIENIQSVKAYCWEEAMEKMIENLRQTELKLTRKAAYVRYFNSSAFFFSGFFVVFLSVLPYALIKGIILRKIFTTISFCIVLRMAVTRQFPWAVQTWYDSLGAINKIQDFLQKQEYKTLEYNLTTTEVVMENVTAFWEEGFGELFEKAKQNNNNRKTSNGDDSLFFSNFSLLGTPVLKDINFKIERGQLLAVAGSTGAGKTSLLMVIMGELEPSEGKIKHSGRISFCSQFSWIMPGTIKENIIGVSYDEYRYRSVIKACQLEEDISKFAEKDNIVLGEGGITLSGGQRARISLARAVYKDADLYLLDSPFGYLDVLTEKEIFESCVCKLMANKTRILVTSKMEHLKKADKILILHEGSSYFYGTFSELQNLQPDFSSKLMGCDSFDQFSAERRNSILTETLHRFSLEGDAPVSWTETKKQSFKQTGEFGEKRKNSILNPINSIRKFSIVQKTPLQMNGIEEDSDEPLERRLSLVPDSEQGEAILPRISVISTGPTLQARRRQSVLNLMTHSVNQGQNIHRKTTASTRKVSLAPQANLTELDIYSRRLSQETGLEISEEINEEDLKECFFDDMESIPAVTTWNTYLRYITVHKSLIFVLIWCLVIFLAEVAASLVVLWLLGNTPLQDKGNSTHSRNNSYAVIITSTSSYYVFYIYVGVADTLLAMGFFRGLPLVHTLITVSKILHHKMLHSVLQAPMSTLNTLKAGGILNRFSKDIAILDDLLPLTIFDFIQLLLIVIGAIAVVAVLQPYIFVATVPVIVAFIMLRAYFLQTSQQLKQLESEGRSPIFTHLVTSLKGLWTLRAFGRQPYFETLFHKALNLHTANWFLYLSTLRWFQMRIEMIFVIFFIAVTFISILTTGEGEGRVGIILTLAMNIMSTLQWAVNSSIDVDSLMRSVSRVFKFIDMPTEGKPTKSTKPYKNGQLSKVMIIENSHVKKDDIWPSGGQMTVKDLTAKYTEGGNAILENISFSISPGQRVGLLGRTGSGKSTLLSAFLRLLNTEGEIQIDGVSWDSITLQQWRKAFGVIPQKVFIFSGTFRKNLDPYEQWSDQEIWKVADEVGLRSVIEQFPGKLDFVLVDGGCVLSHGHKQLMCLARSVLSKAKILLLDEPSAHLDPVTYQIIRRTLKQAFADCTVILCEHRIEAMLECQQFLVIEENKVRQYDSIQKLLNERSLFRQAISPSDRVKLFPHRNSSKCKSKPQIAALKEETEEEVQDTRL

| Structure (SMILES) | EC50 | Emax |
| --- | --- | --- |
| O=C(N[C@H](C(=O)O)C12CC3CC(CC(C3)C1)C2)c1ccc2c(F)cccc2c1OCc1ccc(C(F)(F)F)cc1 [compound 1] | 0.206 µM | 176% |
| O=C(N[C@H](C(=O)O)C12CC3CC(CC(C3)C1)C2)c1ccc2ccccc2c1OCc1ccc(SC(F)(F)F)cc1 [compound 2] | 0.393 µM | 154% |
| O=C(N[C@H](C(=O)O)C12CC3CC(CC(C3)C1)C2)c1cc(F)c2ccccc2c1OCc1ccc(C(F)(F)F)cc1 [compound 3] | 0.406 µM | 156% |
| O=C(N[C@H](C(=O)O)C12CC3CC(CC(O)(C3)C1)C2)c1ccc2cc(F)ccc2c1OCc1ccc(SC(F)(F)F)cc1 [compound 4] | 0.991 µM | 55.7% |
| O=C(N[C@H](C(=O)O)C12CC3CC(CC(C3)C1)C2)c1ccc2cccnc2c1OCC1CCCCC1 [compound 5] | 1.16 µM | 249% |
| O=C(N[C@H](C(=O)O)C12CC3CC(CC(OCC(F)(F)F)(C3)C1)C2)c1ccc2ccccc2c1OCc1ccc(C(F)(F)F)cc1 [compound 6] | 0.126 µM | 233% |
| O=C(N[C@H](C(=O)O)C12CC3CC(CC(C3)C1)C2)c1ccc2ccccc2c1OCc1ccc(OC(F)(F)F)cc1 [compound 8] | 1.4 µM | 176% |
| CS(=O)(=O)c1ccc(COc2c(C(=O)N[C@H](C(=O)O)C34CC5CC(CC(O)(C5)C3)C4)ccc3ccccc23)cc1 [compound 10] | 16.9 µM | 29.2% |
| CC(C)OC12CC3CC(C1)CC([C@H](NC(=O)c1ccc4ccccc4c1OCc1ccc(C(F)(F)F)cc1)C(=O)O)(C3)C2 [compound 11] | 0.401 µM | 157% |
| COc1cccc2c(OCc3ccc(C(F)(F)F)cc3)c(C(=O)N[C@H](C(=O)O)C34CC5CC(CC(C5)C3)C4)ccc12 [compound 12] | 0.709 µM | 154% |
| O=C(N[C@H](C(=O)O)C12CC3CC(CC(O)(C3)C1)C2)c1sc2ccccc2c1OCc1ccc(OC(F)(F)F)cc1 [compound 13] | 3.48 µM | 87.3% |
| COC(=O)[C@@H](NC(=O)c1ccc2ccccc2c1OCc1ccc(C(F)(F)F)cc1)C12CC3CC(CC(O)(C3)C1)C2 [compound 14] | ≥ 24.5 µM | 29.9% |
| O=C(N[C@H](C(=O)O)C12CC3CC(CC(C3)C1)C2)c1sc2ccccc2c1OCc1ccc(C(F)(F)F)cc1 [compound 15] | 0.328 µM | 158% |
| O=C(N[C@H](C(=O)O)C12CC3CC(CC(C3)C1)C2)c1ccc2cc(F)ccc2c1OCC1CCC(F)(F)CC1 [compound 16] | 1.75 µM | 90% |
| O=C(N[C@H](C(=O)O)C12CC3CC(CC(O)(C3)C1)C2)c1ccc2ccccc2c1OCc1ccc(C(F)(F)F)cc1 [compound 17] | 0.903 µM | 156% |
| Cc1ccc2ccc(C(=O)N[C@H](C(=O)O)C34CC5CC(CC(C5)C3)C4)c(OCc3ccc(C(F)(F)F)cc3)c2c1 [compound 18] | 2.18 µM | 370% |
| O=C(N[C@H](C(=O)O)C12CC3CC(CC(OCCO)(C3)C1)C2)c1ccc2ccccc2c1OCc1ccc(C(F)(F)F)cc1 [compound 20] | 0.78 µM | 144% |
| O=C(N[C@H](C(=O)O)C12CC3CC(CC(O)(C3)C1)C2)c1ccc2cc(F)ccc2c1OCC1CCC(F)(F)CC1 [compound 21] | 4.06 µM | 32.5% |
| O=C(N[C@H](C(=O)O)C12CC3CC(CC(O)(C3)C1)C2)c1ccc2cccnc2c1OCc1ccc(C(F)(F)F)cc1 [compound 22] | 3.66 µM | 175% |
| O=C(N[C@H](C(=O)O)C12CC3CC(CC(C3)C1)C2)c1sc2ccccc2c1OCc1ccc(Cl)c(Cl)c1 [compound 24] | 0.726 µM | 159% |
| O=C(N[C@H](C(=O)O)C12CC3CC(CC(OCCF)(C3)C1)C2)c1ccc2cc(F)ccc2c1OCc1ccc(C(F)(F)F)cc1 [compound 25] | 0.228 µM | 106% |
| O=C(N[C@H](C(=O)O)C12CC3CC(CC(OCC(F)(F)F)(C3)C1)C2)c1ccc2cc(F)ccc2c1OCc1ccc(C(F)(F)F)cc1 [compound 26] | 0.183 µM | 113% |
